Assay results from the NIST ThermoML archive (doi:10.1021/je0500431).
Numbers after ± are expanded uncertainties.

Settings: for surface tension liquid-gas: Ring tensiometer; for mass density: 101.33 kPa, Liquid

SMILES	surface tension liquid-gas (293.15 K) [mN/m]	mass density (293.15 K) [kg/m3]	surface tension liquid-gas (298.15 K) [mN/m]	mass density (298.15 K) [kg/m3]	surface tension liquid-gas (303.15 K) [mN/m]	surface tension liquid-gas (308.15 K) [mN/m]	surface tension liquid-gas (313.15 K) [mN/m]	surface tension liquid-gas (318.15 K) [mN/m]	mass density (318.15 K) [kg/m3]	surface tension liquid-gas (323.15 K) [mN/m]
CCC(C)O (stereo not given) [butan-2-ol]	23.18 ± 0.35	807.1 ± 0.6	22.74 ± 0.34	802.9 ± 0.6	22.38 ± 0.34	21.94 ± 0.33	21.56 ± 0.33	21.11 ± 0.32	785.5 ± 0.6	20.76 ± 0.32
CCCCCO [pentan-1-ol]	25.69 ± 0.46	815.3 ± 1	25.29 ± 0.45	811.6 ± 1	24.86 ± 0.44	24.49 ± 0.44	24.06 ± 0.43	23.67 ± 0.42	796.6 ± 1	23.3 ± 0.42
CCCC(C)O (stereo not given) [pentan-2-ol]	23.7 ± 0.43	809.8 ± 1	23.28 ± 0.42	805.7 ± 1	22.87 ± 0.41	22.43 ± 0.41	22.04 ± 0.4	21.6 ± 0.39	788.8 ± 1	21.16 ± 0.39
CCCO [propan-1-ol]	23.73 ± 0.37	803.1 ± 0.7	23.3 ± 0.37	799.3 ± 0.7	22.9 ± 0.36	22.52 ± 0.36	22.1 ± 0.35	21.68 ± 0.35	783.2 ± 0.7	21.27 ± 0.34
CC(C)O [propan-2-ol]	21.3 ± 0.34	785.1 ± 0.7	20.95 ± 0.34	780.9 ± 0.8	20.55 ± 0.33	20.2 ± 0.33	19.83 ± 0.32	19.47 ± 0.32	763.3 ± 0.8	19.09 ± 0.31
